Literature values, collected in US20090252757A1, “METHODS AND COMPOSITIONS FOR INHIBITING HIV INFECTION” (IRM LLC, priority 2005, published 2009).

Target: MLK3 (Homo sapiens, UniProt Q16584)
Details: Roux et al., J. Biol. Chem. 277:49473-80, 2002

Chain of MLK3 (Q16584 whole entry): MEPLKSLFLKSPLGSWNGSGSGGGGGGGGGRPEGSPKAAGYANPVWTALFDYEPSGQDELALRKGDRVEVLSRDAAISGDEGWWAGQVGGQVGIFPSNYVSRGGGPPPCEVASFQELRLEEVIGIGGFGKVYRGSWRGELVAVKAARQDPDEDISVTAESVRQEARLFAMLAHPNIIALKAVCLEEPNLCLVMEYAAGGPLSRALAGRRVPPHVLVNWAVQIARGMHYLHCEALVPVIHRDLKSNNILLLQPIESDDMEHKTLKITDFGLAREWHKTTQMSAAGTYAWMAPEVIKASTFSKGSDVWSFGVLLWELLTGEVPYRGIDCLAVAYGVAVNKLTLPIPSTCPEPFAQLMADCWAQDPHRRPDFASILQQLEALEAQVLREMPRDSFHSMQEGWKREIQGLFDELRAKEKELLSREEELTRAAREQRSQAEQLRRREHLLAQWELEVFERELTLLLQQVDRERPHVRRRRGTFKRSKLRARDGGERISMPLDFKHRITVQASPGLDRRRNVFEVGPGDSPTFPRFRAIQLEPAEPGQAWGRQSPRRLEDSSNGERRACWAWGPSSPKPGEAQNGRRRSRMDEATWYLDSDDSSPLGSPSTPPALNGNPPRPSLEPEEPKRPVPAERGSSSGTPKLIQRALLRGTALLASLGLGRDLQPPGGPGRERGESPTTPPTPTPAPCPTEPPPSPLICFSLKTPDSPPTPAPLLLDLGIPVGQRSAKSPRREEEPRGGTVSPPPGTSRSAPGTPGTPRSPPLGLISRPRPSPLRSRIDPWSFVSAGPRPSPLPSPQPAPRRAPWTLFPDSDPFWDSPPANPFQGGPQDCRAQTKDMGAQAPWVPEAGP

inhibition of MLK3 kinase activity: inhibit the kinase activity of MLK3
Structure (SMILES): CCSCc1ccc2c(c1)c1c3c(c4c5cc(CSCC)ccc5n5c4c1n2[C@H]1C[C@](O)(C(=O)OC)[C@]5(C)O1)CNC3=O [CEP1347]
